This assay deals with T1, hOX2R (Homo sapiens, UniProt O43614).
T1 construct: expressed in transfected cells; host or cells: CHO cells (G418 selection)
T1 sequence (O43614 1-444): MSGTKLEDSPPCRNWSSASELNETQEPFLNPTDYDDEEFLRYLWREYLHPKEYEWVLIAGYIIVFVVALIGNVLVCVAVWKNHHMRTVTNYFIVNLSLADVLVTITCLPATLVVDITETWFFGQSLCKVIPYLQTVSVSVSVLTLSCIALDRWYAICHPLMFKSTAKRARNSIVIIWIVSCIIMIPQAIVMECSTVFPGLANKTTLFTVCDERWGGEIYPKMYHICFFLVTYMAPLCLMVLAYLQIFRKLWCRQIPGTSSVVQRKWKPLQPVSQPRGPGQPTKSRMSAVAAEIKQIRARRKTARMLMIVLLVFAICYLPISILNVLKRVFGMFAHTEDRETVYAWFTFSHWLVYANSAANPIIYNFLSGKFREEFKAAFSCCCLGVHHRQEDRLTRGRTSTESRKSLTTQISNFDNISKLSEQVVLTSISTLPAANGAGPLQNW
As to the kind of experiment: hOX2R IPone assay (orexin receptor agonism). The class given is cell-based. The conditions noted are these: IPone readout; for hOX2R_Ipone max %act: maximal activation; for EC50: orexin receptor agonist, read-out: hOX2R_IPone EC50.

Structures are written as SMILES.

The EC50 is the concentration giving half of the maximal effect.

For the compound `CCN1C(=O)N[C@@H](CCC(F)(F)F)CCCCCCc2cc(cn3ccnc23)-c2nc(ccc2OC)[C@H]1C` [Example 106, (12R,16R)-13-ethyl-8-methoxy-12-methyl-16-(3,3,3-trifluoropropyl)-12,13,15,16,17,18,19, 20,21,22-decahydro-14H-11,7-(azeno)-6,23-(metheno) imidazo[1,2-1][1,3,12] triazacyclohenicosin-14-one], the hOX2R_Ipone max %act amounted to 99.7% and the concentration giving a half-maximal response (EC50) was 1.7 nM.

As for `CCN1C(=O)N[C@@H](CCC(F)(F)F)CCCCCOc2nc(cn3ccnc23)-c2cc(cc(C)n2)[C@H]1C` [Example 118B, (12R,16R)-13-ethyl-9,12-dimethyl-16-(3,3,3-trifluoropropyl)-12,13,16,17,18,19,20,21-octahydro-6,23-(azeno)-11,7-(metheno)imidazo[2,1-c][1,4,8,13,15]oxatetraazacyclohenicosin-14(15H)-one], the hOX2R_Ipone max %act is recorded as 99.7% and the EC50 was found to be 2.6 nM.

Turning to `CCN1C(=O)N[C@@H](CCC(F)(F)F)CCCCCOc2nc(cn3cc(C)nc23)-c2cc(nc3ccoc23)C1C` (single isomer, unassigned) [Example 75B], the hOX2R_Ipone max %act was found to be 101.4% and the concentration for a half-maximal effect (EC50) came to 6 nM.

With `CCN1C(=O)NC(C#N)CCCCCOc2nc(cn3ccnc23)-c2cc(ncc2OC)[C@H]1C` (single isomer, unassigned) [Example 224], the hOX2R_Ipone max %act was 99.26% and the EC50 came to 71.2 nM.

On to `CCN1C(=O)N[C@@H](CCC(C)(F)F)CCOCCOc2nc(cc3ncnn23)-c2cc(ncc2OC)[C@H]1C` [Example 169, (3R,E)-7-(3,3-difluorobutyl)-4-ethyl-25-methoxy-3-methyl-10,13-dioxa-4,6-diaza-1(7,5)-[1,2,4]triazolo[1,5-c]pyrimidina-2(4,2)-pyridinacyclotridecaphan-5-one], for which the hOX2R_Ipone max %act worked out at 111.8% and the 50% effective concentration (EC50) turned out to be 3.36 nM.

Take `CCN1C(=O)N[C@@H](CCC(F)(F)F)CCCCCOc2nc(cn3ccnc23)-c2nc(co2)C1C` (single isomer, unassigned) [Example 105A]: the hOX2R_Ipone max %act worked out at 73.0% and the EC50 is 1360 nM.

Consider `CCN1C(=O)NC(C(C)(C)C)CCCCCOc2nc(cn3ccnc23)-c2cc(ncc2OC)[C@H]1C` (single isomer, unassigned) [Example 63B], for which the hOX2R_Ipone max %act is on record as 103.3% and the 50% effective concentration (EC50) was found to be 5.1 nM.

On to `CCN1C(=O)N[C@@H](CCC(F)(F)F)CCCCCOc2nc(cn3ccnc23)-c2cc(nc(C)n2)[C@H]1C` [Example 119B, (12R,16R)-13-ethyl-9,12-dimethyl-16-(3,3,3-trifluoropropyl)-12,13,16,17,18,19,20,21-octahydro-6,23-(azeno)-11,7-(metheno)imidazo[2,1-c][1,4,8,10,13,15]oxapentaazacyclohenicosin-14(15H)-one], for which the hOX2R_Ipone max %act is given as 99.9% and the EC50 amounted to 4.6 nM.

As for `CCN1C(=O)NCCOCCOc2nc(cn3ccnc23)-c2cccc(c2)[C@H]1C` [Example 2, (12R)-13-ethyl-12-methyl-12,13,16,17,19,20-hexahydro-6,22-(azeno)-11,7-(metheno)imidazo[1,2-o][1,18,4,6,15]dioxatriaza-cycloicosin-14(15H)-one], the hOX2R_Ipone max %act stood at 64.8% and the half-maximal effective concentration (EC50) came to 813 nM.

Regarding `CCN1C(=O)NC(CCC(F)(F)F)CC(C)CCOc2nc(cn3ccnc23)-c2cccc(c2)[C@H]1C` (single isomer, unassigned) [Example 48A], the hOX2R_Ipone max %act was found to be 99.4% and the EC50 was 4.1 nM.

`CCN1C(=O)N[C@@H](CCC(F)(F)F)CCCCCOc2nc(cn3ncnc23)-c2cc(ncc2OC)[C@H]1C` [Example 82, (12R,16R)-13-ethyl-8-methoxy-12-methyl-16-(3,3,3-tri-fluoropropyl)-12,13, 16,17,18,19,20,21-octahydro-6,23-(azeno)-11,7-(metheno)[1,2,4]tria-zolo[5,1-c][1,4,10,13, 15]oxatetraazacyclo-henicosin-14(15H)-one]: the hOX2R_Ipone max %act worked out at 99.62% and the concentration giving a half-maximal response (EC50) amounted to 2.2 nM.

In the case of `CCN1C(=O)N[C@@H](CCC(F)(F)F)CCCCCOc2cc(cc3ccnn23)-c2cc(nnc2OC)[C@H]1C` [Example 140, (3R,7R,E)-4-ethyl-26-methoxy-3-methyl-7-(3,3,3-trifluoropropyl)-13-oxa-4,6-diaza-1(5,7)-pyrazolo[1,5-a]pyridina-2(5,3)-pyridazinacyclotridecaphan-5-one], the hOX2R_Ipone max %act was determined as 101.9% and the half-maximal effective concentration (EC50) came out at 1.4 nM.

Regarding `CCN1C(=O)N[C@@H](CCC(F)(F)F)CCCCCOc2cc(nn3c(C)cnc23)-c2cc(ncc2OC)[C@H]1C` [Example 168, (3R,7R,E)-4-ethyl-25-methoxy-13,3-dimethyl-7-(3,3,3-trifluoropropyl)-13-oxa-4,6-diaza-1(6,8)-imidazo[1,2-b]pyridazina-2(4,2)-pyridinacyclotridecaphan-5-one], the hOX2R_Ipone max %act is 99.31% and the EC50 came to 2.33 nM.

Take `CCN1C(=O)N[C@@H](CCC(F)(F)F)C/C=C\COc2nc(cn3ncnc23)-c2cc(ncc2OC)C1C(F)(F)F` (stereo partly drawn) [Example 33, (16S,18Z)-13-ethyl-8-methoxy-12-(trifluoromethyl)-16-(3,3,3-trifluoropropyl)-12,13,15,16,17,20-hexahydro-14H-6,22-(azeno)-11,7-(metheno) [1,2,4]triazolo[5,1-c] [1,4,10,13,15]oxatetra-azacycloicosin-14-one]: the hOX2R_Ipone max %act worked out at 98.8% and the EC50 amounted to 335 nM.

As to `CCN1C(=O)NC(CCC(F)(F)F)C(C)CCCOc2nc(cn3ccnc23)-c2cccc(c2)[C@H]1C` (single isomer, unassigned) [Example 42A], the hOX2R_Ipone max %act stood at 100.6% and the concentration giving a half-maximal response (EC50) is 6.6 nM.

In the case of `CCN1C(=O)NC(CC2(C)CC2)CCCCCOc2nc(nn3ccnc23)-c2cc(ncc2OC)[C@H]1C` (stereo partly drawn) [Example 206, (3R,E)-4-ethyl-25-methoxy-3-methyl-7-((1-methylcyclo-propyl)methyl)-13-oxa-4,6-diaza-1(2,4)-imidazo[2,1-f] [1,2,4]triazina-2(4,2)-pyridina-cyclotridecaphan-5-one], the hOX2R_Ipone max %act is listed as 107.8% and the 50% effective concentration (EC50) came to 2.07 nM.

With `CCC1CCCCCOc2nc(cn3ccnc23)-c2cc(ncc2OC)[C@@H](C)N(CC)C(=O)N1` (single isomer, unassigned) [Example 52B], the hOX2R_Ipone max %act is on record as 99.5% and the concentration for a half-maximal effect (EC50) came to 4.9 nM.

As for `CCN1C(=O)N[C@@H](CCC(F)(F)F)CCCCOc2nc(cn3ccnc23)-c2ccnc(c2)[C@@H]1C` [Example 29A, (12S,16R)-13-ethyl-12-methyl-16-(3,3,3-tri-fluoropropyl)-12,13,15,16,17, 18,19,20-octahydro-14H-6,22-(azeno)-11,7-(metheno) imidazo[2,1-c][1,4,10,13,15] oxatetraazacyclo-icosin-14-one], the hOX2R_Ipone max %act worked out at 99.5% and the half-maximal effective concentration (EC50) was found to be 42.9 nM.

As to `CCN1C(=O)NC(C2CC(F)(F)C2)CCCCCOc2nc(cn3ccnc23)-c2cc(ncc2OC)[C@H]1C` (stereo partly drawn) [Example 195, (3R,E)-7-(3,3-difluorocyclobutyl)-4-ethyl-25-methoxy-3-methyl-13-oxa-4,6-diaza-1(6,8)-imidazo[1,2-a]pyrazina-2(4,2)-pyridinacyclotri-decaphan-5-one], the hOX2R_Ipone max %act was determined as 101.4% and the concentration for a half-maximal effect (EC50) is 0.84 nM.

With `CCN1C(=O)N[C@@H](CCC(C)(F)F)CCOCCOc2nc(cn3ncnc23)-c2ccnc(c2)[C@H]1C` [Example 180], the hOX2R_Ipone max %act stood at 100.8% and the 50% effective concentration (EC50) is 4.15 nM.

With `CCN1C(=O)NC(CC2(F)CC2)CCCCCOc2nc(cn3ccnc23)-c2cc(ncc2OC)[C@H]1C` (stereo partly drawn) [Example 183, (3R,E)-4-ethyl-7-((1-fluorocyclopropyl)methyl)-25-methoxy-3-methyl-13-oxa-4,6-diaza-1(6,8)-imidazo[1,2-a]pyrazina-2(4,2)-pyridinacyclotridecaphan-5-one], the hOX2R_Ipone max %act is recorded as 100.2% and the EC50 stood at 1 nM.

On to `CCN1C(=O)NC(CCC(F)(F)F)C(C)/C=C\COc2nc(cn3ccnc23)-c2cccc(c2)[C@H]1C` (single isomer, unassigned) [Example 41C], for which the hOX2R_Ipone max %act is listed as 98.9% and the concentration for a half-maximal effect (EC50) is 23.4 nM.

`CCN1C(=O)N[C@@H](CCC(F)(F)F)CCCCOc2nc(cn3ccnc23)-c2cc(ncc2OC)C1C` (stereo in doubt) [Example 40, (12S,16R)-13-ethyl-8-methoxy-12-methyl-16-(3,3,3-trifluoropropyl)-12,13,15,16,17,18,19,20-octahydro-14H-6,22-(azeno)-11,7-(metheno)imidazo[2,1-c][1,4,10,13,15]oxatetra-azacycloicosin-14-one]: the hOX2R_Ipone max %act is 101.2% and the EC50 amounted to 1.2 nM.

With `CCN1C(=O)NC(CC2CCOC2)CCCCCOc2nc(cn3ccnc23)-c2cc(ncc2OC)[C@H]1C` (single isomer, unassigned) [Example 67B], the hOX2R_Ipone max %act came out at 101% and the EC50 was found to be 2.1 nM.

Turning to `CCN1C(=O)N[C@@H](CCC(F)(F)F)CCCCCOc2cc(cn3ccnc23)-c2cc(ncn2)C1C` (single isomer, unassigned) [Example 96A], the hOX2R_Ipone max %act came out at 100.3% and the concentration for a half-maximal effect (EC50) came to 11.9 nM.

Source of the values: patent US12686690B2, “Macrocyclic urea orexin receptor agonists” (Merck Sharp & Dohme LLC, priority 2020, dated 2026).
